Reference: patent US12264156B2, “Compounds and pharmaceutical compositions thereof for the treatment of diseases” (GALAPAGOS NV, priority 2018, dated 2025)

Assays:
[1] = test system: LPS triggered IL-10 secretion in monocytes; test: Monocytes assay: LPS-triggered IL-10 (ELISA); type: cell-based, human; conditions: LPS 200 ng/mL, supernatant after 4 h, maximal fold change vs LPS only
In short: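 Human CD14+ monocytes, magnetically isolated from buffy-coat PBMCs, were seeded at 100 000 cells/well and preincubated with compound for 1 h at 37° C (0.2% DMSO). LPS was then added at a final 200 ng/mL for 4 h. Supernatant IL-10 was quantified by chemiluminescent sandwich ELISA against a standard curve.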

[2] = test system: LPS-induced TNFα in monocytes; test: Monocytes assay: LPS-triggered TNFα (ELISA); type: cell-based, human; conditions: LPS 200 ng/mL, supernatant after 4 h
In short: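 Human CD14+ monocytes from buffy-coat PBMCs (magnetic bead selection) were seeded at 100 000 cells/well and pretreated with compound for 1 h at 37° C (0.2% DMSO). They were then stimulated with 200 ng/mL LPS for 4 h, and supernatant TNFα was measured by chemiluminescent sandwich ELISA as percent inhibition.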

Structure (SMILES)	IL-10 FCmax median [1]	EC50 ([2]; Homo sapiens, Monocyte, 4 h)	EC50 ([2]; Homo sapiens, Monocyte)	EC50 [2]
COc1cc(-c2cnc3cc(OC(C)(C)CO)ccn23)cc(OC(F)F)c1C(=O)NC1CC1 [Cpd 209, N-cyclopropyl-2-(difluoromethoxy)-4-[7-(2-hydroxy-1,1-dimethyl-ethoxy)imidazo[1,2-a]pyridin-3-yl]-6-methoxy-benzamide]	+ (≤1.5)	100 to 1000 nM	–	–
CCOC(=O)C1(F)CCN(CCCOc2ccn3c(-c4cc(OC)c(C(=O)NC5CC5)c(OC(F)F)c4)cnc3c2)CC1 [Cpd 363, ethyl 1-[3-[3-[4-(cyclopropylcarbamoyl)-3-(difluoromethoxy)-5-methoxy-phenyl]imidazo[1,2-a]pyridin-7-yl]oxypropyl]-4-fluoro-piperidine-4-carboxylate]	+++ (>4.5)	0.1 to 100 nM	–	–
COc1cc(-c2cnc3cc(OCC(O)CN4CCOCC4)ccn23)cc(OC(F)F)c1C(=O)NC1CC1 (centres unmarked) [Cpd 330, N-cyclopropyl-2-(difluoromethoxy)-4-[7-(2-hydroxy-3-morpholino-propoxy)imidazo[1,2-a]pyridin-3-yl]-6-methoxy-benzamide]	+++ (>4.5)	100 to 1000 nM	–	–
COc1cc(-c2cnc3cc(OCCCN4CCCC4)ccn23)cc(OC(F)F)c1C(=O)NC1CC1 [compound 275, N-cyclopropyl-2-(difluoromethoxy)-6-methoxy-4-[7-(3-pyrrolidin-1-ylpropoxy)imidazo[1,2-a]pyridin-3-yl]benzamide]	+++ (>4.5)	100 to 1000 nM	–	–
COc1cc(-c2cnc3cc(OCCCN4CCC4)ccn23)cc(OC(F)F)c1C(=O)NC1CC1 [compound 274, 4-[7-[3-(azetidin-1-yl)propoxy]imidazo[1,2-a]pyridin-3-yl]-N-cyclopropyl-2-(difluoromethoxy)-6-methoxy-benzamide]	++ (>1.5-4.5)	100 to 1000 nM	–	–
COc1cc(-c2cnc3cc(OCCCN4CCS(=O)(=O)CC4)ccn23)cc(OC(F)F)c1C(=O)NC1CC1 [Cpd 331, N-cyclopropyl-2-(difluoromethoxy)-4-[7-[3-(1,1-dioxo-1,4-thiazinan-4-yl)propoxy]imidazo[1,2-a]pyridin-3-yl]-6-methoxy-benzamide]	+++ (>4.5)	0.1 to 100 nM	–	–
COc1cc(-c2cnc3cc(OCCN4C5CCC4COC5)ccn23)cc(OC(F)F)c1C(=O)NC1CC1 [compound 193, N-cyclopropyl-2-(difluoromethoxy)-6-methoxy-4-[7-[2-(3-oxa-8-azabicyclo [3.2.1]octan-8-yl)ethoxy]imidazo[1,2-a]pyridin-3-yl]benzamide]	+++ (>4.5)	–	0.1 to 100 nM	–
COc1cc(-c2cnc3cc(OCCCN4CCCC(O)C4)ccn23)cc(OC(F)F)c1C(=O)NC1CC1 (centres unmarked) [compound 328, N-cyclopropyl-2-(difluoromethoxy)-4-[7-[3-(3-hydroxy-1-piperidyl)propoxy]imidazo [1,2-a]pyridin-3-yl]-6-methoxy-benzamide]	+++ (>4.5)	100 to 1000 nM	–	–
COc1cc(-c2cnc3cc(OCC(O)CN4CCCCC4)ccn23)cc(OC(F)F)c1C(=O)NC1CC1 (centres unmarked) [Cpd 321, N-cyclopropyl-2-(difluoromethoxy)-4-[7-[2-hydroxy-3-(1-piperidyl)propoxy]imidazo [1,2-a]pyridin-3-yl]-6-methoxy-benzamide]	+++ (>4.5)	0.1 to 100 nM	–	–
COc1cc(-c2cnc3cc(OCCN4CCN(C(C)C)CC4)ccn23)cc(OC(F)F)c1C(=O)NC1CC1 [compound 276, N-cyclopropyl-2-(difluoromethoxy)-4-[7-[2-(4-isopropylpiperazin-1-yl)ethoxy]imidazo[1,2-a]pyridin-3-yl]-6-methoxy-benzamide]	++ (>1.5-4.5)	100 to 1000 nM	–	–
COc1cc(-c2cnc3cc(OCC(O)CN4CCOCC4)ccn23)cc(OC(F)F)c1C(=O)NC1CC1 (single isomer, unassigned) [Cpd 386, N-cyclopropyl-2-(difluoromethoxy)-4-[7-(2-hydroxy-3-morpholino-propoxy)imidazo[1,2-a]pyridin-3-yl]-6-methoxy-benzamide]	+++ (>4.5)	–	–	100 to 1000 nM
COc1cc(-c2cnc3cc(OCCN4CCOC[C@H]4C)ccn23)cc(OC(F)F)c1C(=O)NC1CC1 [compound 234, N-cyclopropyl-2-(difluoromethoxy)-6-methoxy-4-[7-[2-[(3R)-3-methylmorpholin-4-yl]ethoxy]imidazo[1,2-a]pyridin-3-yl]benzamide]	+++ (>4.5)	100 to 1000 nM	–	–
COc1cc(-c2cnc3cc(OCCCN4CCNCC4)ccn23)cc(OC(F)F)c1C(=O)NC1CC1 [compound 278, N-cyclopropyl-2-(difluoromethoxy)-6-methoxy-4-[7-(3-piperazin-1-ylpropoxy)imidazo[1,2-a]pyridin-3-yl]benzamide]	++ (>1.5-4.5)	100 to 1000 nM	–	–
COc1cc(-c2cnc3cc(OCCCN4CCC5(CC4)CN(C)C(=O)O5)ccn23)cc(OC(F)F)c1C(=O)NC1CC1 [compound 325, N-cyclopropyl-2-(difluoromethoxy)-6-methoxy-4-[7-[3-(3-methyl-2-oxo-1-oxa-3,8-diazaspiro[4.5]decan-8-yl)propoxy]imidazo[1,2-a]pyridin-3-yl]benzamide]	++ (>1.5-4.5)	0.1 to 100 nM	–	–
COc1cc(-c2cnc3cc(OCCN4CCOCC4)ccn23)cc2c1C(=O)N(CC(F)F)CC2 [compound 218, 2-(2,2-difluoroethyl)-8-methoxy-6-[7-(2-morpholinoethoxy)imidazo [1,2-a]pyridin-3-yl]-3,4-dihydroisoquinolin-1-one]	+++ (>4.5)	100 to 1000 nM	–	–
COc1cc(-c2cnc3cc(OCCN4CCOC[C@@H]4C)ccn23)cc2c1C(=O)N(CC(F)(F)F)CC2 [Cpd 257, 8-methoxy-6-[7-[2-[(3S)-3-methylmorpholin-4-yl]ethoxy]imidazo[1,2-a]pyridin-3-yl]-2-(2,2,2-trifluoroethyl)-3,4-dihydroisoquinolin-1-one]	+++ (>4.5)	100 to 1000 nM	–	–
COc1cc(-c2cnc3cc(OCC4(F)CN(C)C4)ccn23)cc2c1C(=O)N(CC(F)(F)F)CC2 [compound 252, 6-[7-[(3-fluoro-1-methyl-azetidin-3-yl)methoxy]imidazo[1,2-a]pyridin-3-yl]-8-methoxy-2-(2,2,2-trifluoroethyl)-3,4-dihydro isoquinolin-1-one]	+++ (>4.5)	100 to 1000 nM	–	–
CCOC(=O)C1(F)CCN(CC(O)COc2ccn3c(-c4cc(OC)c(C(=O)NC5CC5)c(OC(F)F)c4)cnc3c2)CC1 (centres unmarked) [compound 384, ethyl 1-[3-[3-[4-(cyclopropylcarbamoyl)-3-(difluoromethoxy)-5-methoxy-phenyl]imidazo[1,2-a]pyridin-7-yl]oxy-2-hydroxy-propyl]-4-fluoro-piperidine-4-carboxylate]	++ (>1.5-4.5)	0.1 to 100 nM	–	–
COc1cc(-c2cnc3cc(OCCN4CCOC[C@H]4C)ccn23)cc2c1C(=O)N(CC(F)(F)F)CC2 [compound 259, 8-methoxy-6-[7-[2-[(3R)-3-methylmorpholin-4-yl]ethoxy]imidazo[1,2-a]pyridin-3-yl]-2-(2,2,2-trifluoroethyl)-3,4-dihydroisoquinolin-1-one]	+++ (>4.5)	100 to 1000 nM	–	–
